Experimental data published in ChEMBL document CHEMBL1137114, “Antituberculous activity of some aryl semicarbazone derivatives” (2004).

Legend:
[1] = tested on: Mycobacterium tuberculosis; assay: Antimycobacterial activity of compound against Mycobacterium tuberculosis H37Rv at 0.125 ug/mL; type: functional
[2] = tested on: Mycobacterium tuberculosis; assay: Antimycobacterial activity of compound against Mycobacterium tuberculosis H37Rv at 1.56 ug/mL; type: functional
[3] = tested on: Mycobacterium tuberculosis; assay: Antimycobacterial activity of compound against Mycobacterium tuberculosis H37Rv at 8 ug/mL; type: functional
[4] = tested on: Mycobacterium tuberculosis; assay: Antimycobacterial activity of compound against Mycobacterium tuberculosis H37Rv at 6.25 ug/mL; type: functional
[5] = tested on: Mycobacterium tuberculosis; assay: Antimycobacterial activity of compound against Mycobacterium tuberculosis H37Rv at 2.50 ug/mL
[6] = tested on: Mycobacterium tuberculosis; assay: Antimycobacterial activity of compound against Mycobacterium tuberculosis H37Rv at 0.05 ug/mL; type: functional
[7] = tested on: Mycobacterium tuberculosis; assay: Antimycobacterial activity of compound against Mycobacterium tuberculosis H37Rv at 1.88 ug/mL; type: functional
[8] = tested on: Mycobacterium tuberculosis; assay: Antimycobacterial activity of compound against Mycobacterium tuberculosis H37Rv at 5 ug/mL; type: functional
[9] = tested on: Mycobacterium tuberculosis; assay: Antimycobacterial activity of compound against Mycobacterium tuberculosis H37Rv at 2 ug/mL; type: functional

Compound CO[C@H]1/C=C/O[C@@]2(C)Oc3c(C)c(O)c4c(O)c(c(/C=N/N5CCN(C)CC5)c(O)c4c3C2=O)NC(=O)/C(C)=C\C=C\[C@H](C)[C@H](O)[C@@H](C)[C@@H](O)[C@@H](C)[C@H](OC(C)=O)[C@@H]1C [RIFAMPIN] has an inhibition at 0.125 µg/mL [1] of 95%.

In the case of CC(=O)Nc1ccc(NC(=O)N/N=C/c2cccc([N+](=O)[O-])c2)cc1, the inhibition at 1.56 µg/mL [2] is reported as 100%.

Nc1ccc(C(=O)O)c(O)c1 [AMINOSALICYLIC ACID] was tested, and the inhibition at 8 µg/mL [3] was 92%.

With CC(=O)Nc1ccc(NC(=O)N/N=C/c2ccc(N(C)C)cc2)cc1 the inhibition at 6.25 µg/mL [4] was 2%.

With Cc1c(Cl)cccc1NC(=O)N/N=C/c1ccc(N(C)C)cc1 the inhibition at 6.25 µg/mL [4] was 0%.

CCc1cc(C(N)=S)ccn1 [ETHIONAMIDE] was tested, and the inhibition at 2.5 µg/mL [5] was 90%.

Cc1c(Cl)cccc1NC(=O)N/N=C/c1ccc([N+](=O)[O-])cc1 showed an inhibition at 6.25 µg/mL [4] of 24%.

In the case of NNC(=O)c1ccncc1 [ISONIAZID], the inhibition at 0.05 µg/mL [6] is reported as 95%.

CC[C@@H](CO)NCCN[C@@H](CC)CO [ETHAMBUTOL] gave an inhibition at 1.88 µg/mL [7] of 90%.

For NC[C@H]1O[C@H](O[C@H]2[C@H](O)[C@@H](O[C@H]3O[C@H](CO)[C@@H](O)[C@H](N)C3O)[C@H](N)C[C@@H]2N)[C@H](O)[C@@H](O)[C@@H]1O (single isomer, unassigned) [KANAMYCIN], the inhibition at 5 µg/mL [8] was 90%.

Compound CC(=O)Nc1ccc(NC(=O)N/N=C/c2ccc([N+](=O)[O-])cc2)cc1 has an inhibition at 6.25 µg/mL [4] of 95%.

For O=C(O)c1cn(C2CC2)c2cc(N3CCNCC3)c(F)cc2c1=O [CIPROFLOXACIN], the inhibition at 2 µg/mL [9] was 95%.

For CC(=O)Nc1ccc(NC(=O)N/N=C/c2ccccc2[N+](=O)[O-])cc1, the inhibition at 6.25 µg/mL [4] was 90%.

CC(=O)Nc1ccc(NC(=O)N/N=C/c2ccccc2O)cc1 was tested, and the inhibition at 6.25 µg/mL [4] was 5%.

Cc1c(Cl)cccc1NC(=O)N/N=C/c1ccccc1O was tested, and the inhibition at 6.25 µg/mL [4] was 0%.

Cc1c(Cl)cccc1NC(=O)N/N=C/c1ccccc1[N+](=O)[O-] was tested, and the inhibition at 6.25 µg/mL [4] was 10%.

With Cc1c(Cl)cccc1NC(=O)N/N=C/c1cccc([N+](=O)[O-])c1 the inhibition at 6.25 µg/mL [4] was 58%.
